Patent US20240076626A1, “HYDROGEN PEROXIDE EVOLVED HOST CELL” (MedImmune Limited, priority 2020, published 2024)

How the values were obtained:
[1] = tested on: H2O2 evolved host cells; assay: ChemStress assay, survival with prooxidant chemical compounds (PrestoBlue); assay type: cell-based, Chinese hamster; conditions: 72 hours growth in the presence of the stressor
Method: To confirm the H2O2 evolved host cell's ability to resist oxidative stress, the cells were evaluated for survival in response to several prooxidant chemical compounds selected to mimic bioreactor stressors: […] These chemicals affect a diverse subset of intracellular redox pathways such as those involved in GSH biosynthesis and turnover (BSO and MS) (Lee et al. (1992) “Effects of buthionine sulfoximine treatment on cellular glutathione levels and cytotoxicities of cisplatin, carboplatin and radiation in human stomach and ovarian cancer cell lines”. Korean J Intern Med. 7(2):111-7; Dunning et al. (2013) “Glutathione and antioxidant enzymes serve complementary roles in protecting activated hepatic stellate cells against hydrogen peroxide-induced cell death”. Biochim Biophys Acta. 1832(12):2027-34), intracellular ROS generation (MSB) (Beck et al. (2011) “Ascorbate/menadione-induced oxidative stress kills cancer cells that express normal or mutated forms of the oncogenic protein Bcr-Abl. An in vitro and in vivo mechanistic study”. […] J Neurosci Res. 64(6):646-53). Chem stress assays were performed according to the manufacturer's instructions (ChemStress®, […], Ireland). In brief, CHO or H2O2 evolved host cells were seeded into […] ChemStress plates (ChemStress®, […], Ireland) at 18,000 cells/well in 90 μl proprietary medium supplemented with 6 mM L-glutamine. A control well was incubated with medium alone. Plates were incubated for 72-hours in a static incubator at 36.5° C., 6% CO2. Following this, 10 μl of neat PrestoBlue dye (Thermo Fisher Scientific, UK) was added to all wells before plates were mixed for 20 seconds and incubated for a further 30 minutes at 36.5° C., 6% CO2. Plates were analyzed using a PHERAstar plate reader (BMG LABTECH, Ortenberg, Germany) with preconfigured protocols (excitation 560 nm, emission 590 nm). Data was analyzed, using the […] software ([…], Ireland).

[2] = tested on: H2O2 evolved host cells; assay: cells; conditions: Cricetulus griseus
Method: The H2O2 evolved host and CHO control host were passaged to 90 PDL and 7 PDL respectively in CD-CHO supplemented with 6 mM glutamine after which both hosts were re-challenged with 37 mM H2O2 and viabilities recorded (viability measured on days 1, 2, 4, 7, 10, 11 and 12)
Specifically, CHO-K1 cells adapted to grow in suspension culture (CHO Control) were revived in chemically-defined (CD) CHO medium (Life technologies, Paisley, UK) supplemented with 6 mM L-glutamine (Life technologies, Paisley, UK) and passaged three times at 0.2×10^6 cells/ml in a 30 ml culture volume. When cells reached 99% viability, they were incubated for 1 hour with 14 mM H2O2 (Sigma-Aldrich, UK) before centrifugation at 130 g for 5 minutes and resuspended in 30 ml fresh CD CHO supplemented with 6 mM L-glutamine. CHO cells were left to recover until cells reached 70% viability. This process was repeated an additional three times resulting in a total of four exposures to 14 mM H2O2, in which cells gradually recovered over a period of 10-20 days, with the medium being replenished periodically, until cells reached 70% viability. The cells were then subjected to one round of 18.5 mM H2O2 treatment following the method above until cells reached 90% viability. […]

[3] = tested on: H2O2 evolved host A; assay: Survival of BisAb-expressing pools in the presence of MSB (Vi-Cell viability); assay type: cell-based, Chinese hamster; conditions: 6 μM MSB, up to 72 hours, cells expressing BisAb A, versus H2O treated control
Method: (§1) Expressing pools were compared for survival in the presence of the widely used prooxidant, menadione sodium bisulphite (MSB). Briefly, CHO Control or H2O2 evolved host cells expressing BisAbs A or BisAb B were seeded at 0.3×10^6 cells/ml into 30 ml of proprietary medium supplemented with 50 μM MSX. A total of 6 μM Menadione Sodium Bisulfite (MSB) (Sigma-Aldrich, UK) or water was added to test and control cultures, respectively. Cells were assessed for viability and viable cell density (VCD) using a Vi-Cell XR Cell Viability Analyser (Beckman Coulter, USA) at 24, 48 and 72 hours post addition of MSB or water.

[4] = tested on: H2O2 evolved host B; assay: as above; assay type: cell-based, Chinese hamster; conditions: 6 μM MSB, up to 72 hours, cells expressing BisAb B, versus H2O treated control
Method: as §1

Structure (SMILES): CCCCS(=N)(=O)CCC(N)C(=O)O (stereo not shown) [BSO, Buthionine Sulfoximine]
- viability of H2O2 evolved host cells compared to CHO control cells [1]: significantly improved viabilities

Structure (SMILES): [Cl][Co][Cl] [CoCl, Cobalt chloride]
- viability of H2O2 evolved host cells compared to CHO control cells [1]: significantly improved viabilities

Structure (SMILES): OO [H2O2, hydrogen peroxide]
- viability at 37000 µM [2]: ~50%

Structure (SMILES): O=C(O)CC(S)C(=O)O (stereo not shown) [MS, Mercaptosuccinic Acid]
- viability of H2O2 evolved host cells compared to CHO control cells [1]: significantly improved viabilities

Structure (SMILES): CC1(S(=O)(=O)[O-])CC(=O)c2ccccc2C1=O.[Na+] (stereo not shown) [MSB, Menadione Sodium Bisulphite]
- viability of H2O2 evolved host cells compared to CHO control cells [1]: significantly improved viabilities
- viability [3]: comparable with H2O treated controls
- viability [4]: comparable with H2O treated controls
